Assay results as given in ChEMBL document CHEMBL3525919, “Potent inhibition of human sulfotransferase 1A1 by 17α-ethinylestradiol: role of 3'-phosphoadenosine 5'-phosphosulfate binding and structural rearrangements in regulating inhibition and activity” (Drug Metab Dispos, 2012).

Columns and labels:
Sulfotransferase 1A1 [1] = target: T1, Sulfotransferase 1A1 (Homo sapiens, UniProt P50225); test: Binding affinity to human SULT1A1 expressed in Escherichia coli assessed as change in intrinsic fluorescence; assay type: ADME
T1 sequence (P50225 whole entry): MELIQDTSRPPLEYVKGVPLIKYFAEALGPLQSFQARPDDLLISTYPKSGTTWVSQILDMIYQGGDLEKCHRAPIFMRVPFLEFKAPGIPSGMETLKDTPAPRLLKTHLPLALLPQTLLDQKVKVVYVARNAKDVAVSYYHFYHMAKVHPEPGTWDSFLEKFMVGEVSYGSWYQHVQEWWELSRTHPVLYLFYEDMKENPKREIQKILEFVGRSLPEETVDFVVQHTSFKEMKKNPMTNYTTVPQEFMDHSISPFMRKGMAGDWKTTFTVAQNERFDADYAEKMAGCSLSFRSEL

Sulfotransferase 1A1 [2] = target: T1, Sulfotransferase 1A1; test: Binding affinity to human SULT1A1 expressed in Escherichia coli assessed as change in intrinsic fluorescence in presence of 3',5'-phosphoadenosine; assay type: ADME
Sulfotransferase 1A1 [3] = target: T1, Sulfotransferase 1A1; test: Inhibition of human SULT1A1 expressed in Escherichia coli assessed as 17beta-estradiol sulfation at 100 nM by Michaelis-Menten equation analysis
Sulfotransferase 1A1 [4] = target: T1, Sulfotransferase 1A1; test: Inhibition of human SULT1A1 expressed in Escherichia coli assessed as p-nitrophenol sulfation at 100 nM by Michaelis-Menten equation analysis
Sulfotransferase 1A1 [5] = target: T1, Sulfotransferase 1A1; test: Inhibition of human SULT1A1 expressed in Escherichia coli assessed as beta-naphthol sulfation at 100 nM by Michaelis-Menten equation analysis
Sulfotransferase 1A1 [6] = target: T1, Sulfotransferase 1A1; test: Inhibition of SULT1A1 in human MCF7 cells assessed as 17beta-estradiol sulfation; assay type: cell-based

SMILES	Kd (Sulfotransferase 1A1 [1]) [nM]	Kd (Sulfotransferase 1A1 [2]) [nM]	Ki (Sulfotransferase 1A1 [3]) [nM]	Ki (Sulfotransferase 1A1 [4]) [nM]	Ki (Sulfotransferase 1A1 [5]) [nM]	IC50 (Sulfotransferase 1A1 [6]) [nM]
C[C@]12CC[C@@H]3c4ccc(O)cc4CC[C@H]3[C@@H]1CC[C@@H]2O [ESTRADIOL]	2300	1200	–	–	–	–
C#C[C@]1(O)CC[C@H]2[C@@H]3CCc4cc(O)ccc4[C@H]3CC[C@@]21C [ETHINYL ESTRADIOL]	500	4.3	14.9	8.9	19	20
